# Test results as given in the supplement of paper PMC8967900.
# Assays:
# Experiment in all cases: selective drug sensitivity score (sDSS, relative to normal bone marrow) (sDSS (score)); higher = more potent and effective on the cell line relative to normal bone marrow cells
# Conditions in all cases: 72 h
# [1] = tested on: KASUMI-9
# [2] = tested on: RCH-ACV
# [3] = tested on: RPMI-8402
# [4] = tested on: COG-LL-355h
# [5] = tested on: MOLT-4
# [6] = tested on: KASUMI-2
# [7] = tested on: MN-60
# [8] = tested on: PEER
# [9] = tested on: MOLT-16
# [10] = tested on: SUP-B15
# [11] = tested on: COG-LL-402h
# [12] = tested on: MOLT-14
# [13] = tested on: NALM-6
# [14] = tested on: HPB-ALL
# [15] = tested on: ALL-PO
# [16] = tested on: JURKAT
# [17] = tested on: 697
# [18] = tested on: COG-LL-319h
# [19] = tested on: NALM-16
# [20] = tested on: TMD5
# 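Further: ALL cell lines in 384-well plates, five doses spanning 10,000-fold, each plate scaled between vehicle and 100 µmol/L benzalkonium chloride controls, sDSS an adapted area-under-curve metric.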
smiles,measurement,setting,value
CN[C@@H](C)C(=O)N[C@H]1CN(C(=O)CC(C)C)CC[C@H]2CC[C@@H](C(=O)NC(c3ccccc3)c3ccccc3)N2C1=O [AT-406] (top concentration 10000 nM),selective drug sensitivity score,[1],-1.26
same,selective drug sensitivity score,[2],0.84
same,selective drug sensitivity score,[3],-0.96
same,selective drug sensitivity score,[4],8.04
same,selective drug sensitivity score,[5],-1.26
same,selective drug sensitivity score,[6],0.34
same,selective drug sensitivity score,[7],-1.26
same,selective drug sensitivity score,[8],-1.16
same,selective drug sensitivity score,[9],-1.26
same,selective drug sensitivity score,[10],-1.26
same,selective drug sensitivity score,[11],-0.86
same,selective drug sensitivity score,[12],-1.26
same,selective drug sensitivity score,[13],-1.26
same,selective drug sensitivity score,[14],-1.26
same,selective drug sensitivity score,[15],-1.26
same,selective drug sensitivity score,[16],-1.26
same,selective drug sensitivity score,[17],-1.26
same,selective drug sensitivity score,[18],-1.06
same,selective drug sensitivity score,[19],-1.26
same,selective drug sensitivity score,[20],6.54
CC(C)(O)CC(=O)NCCn1ccc2ncnc(Nc3ccc(Oc4cccc(C(F)(F)F)c4)c(Cl)c3)c21 [TAK-285] (top concentration 2500 nM),selective drug sensitivity score,[1],3.3
same,selective drug sensitivity score,[2],0
same,selective drug sensitivity score,[3],0
same,selective drug sensitivity score,[4],0
same,selective drug sensitivity score,[5],0
same,selective drug sensitivity score,[6],0
same,selective drug sensitivity score,[7],0
same,selective drug sensitivity score,[8],0
same,selective drug sensitivity score,[9],0
same,selective drug sensitivity score,[10],0
same,selective drug sensitivity score,[11],0
same,selective drug sensitivity score,[12],0
same,selective drug sensitivity score,[13],0
same,selective drug sensitivity score,[14],0
same,selective drug sensitivity score,[15],0
same,selective drug sensitivity score,[16],0
same,selective drug sensitivity score,[17],0
same,selective drug sensitivity score,[18],0
same,selective drug sensitivity score,[19],0
same,selective drug sensitivity score,[20],3.1
CN(C)C[C@@H]1CCn2cc(c3ccccc32)C2=C(C(=O)NC2=O)c2cn(c3ccccc23)CCO1 [Ruboxistaurin] (top concentration 10000 nM),selective drug sensitivity score,[1],1.36
same,selective drug sensitivity score,[2],1.06
same,selective drug sensitivity score,[3],-1.74
same,selective drug sensitivity score,[4],1.26
same,selective drug sensitivity score,[5],-1.24
same,selective drug sensitivity score,[6],-3.34
same,selective drug sensitivity score,[7],-5.44
same,selective drug sensitivity score,[8],0.46
same,selective drug sensitivity score,[9],-0.34
same,selective drug sensitivity score,[10],0.06
same,selective drug sensitivity score,[11],0.96
same,selective drug sensitivity score,[12],1.66
same,selective drug sensitivity score,[13],-2.64
same,selective drug sensitivity score,[14],-5.14
same,selective drug sensitivity score,[15],6.86
same,selective drug sensitivity score,[16],-1.84
same,selective drug sensitivity score,[17],2.36
same,selective drug sensitivity score,[18],-1.04
same,selective drug sensitivity score,[19],-3.74
same,selective drug sensitivity score,[20],0.46
C=CCc1cccc(/C=N/NC(=O)CN2CCN(Cc3ccccc3)CC2)c1O [PAC-1] (top concentration 10000 nM),selective drug sensitivity score,[1],0.38
same,selective drug sensitivity score,[2],1.18
same,selective drug sensitivity score,[3],1.78
same,selective drug sensitivity score,[4],2.08
same,selective drug sensitivity score,[5],2.58
same,selective drug sensitivity score,[6],-0.72
same,selective drug sensitivity score,[7],4.08
same,selective drug sensitivity score,[8],2.58
same,selective drug sensitivity score,[9],2.68
same,selective drug sensitivity score,[10],2.08
same,selective drug sensitivity score,[11],4.98
same,selective drug sensitivity score,[12],8.28
same,selective drug sensitivity score,[13],2.18
same,selective drug sensitivity score,[14],0.98
same,selective drug sensitivity score,[15],0.98
same,selective drug sensitivity score,[16],1.28
same,selective drug sensitivity score,[17],4.08
same,selective drug sensitivity score,[18],1.18
same,selective drug sensitivity score,[19],3.58
same,selective drug sensitivity score,[20],0.98
COc1cc(Br)c(Nc2nc(-c3c(C)nc4ncccn34)cs2)c(Br)c1 [PTC-209] (top concentration 10000 nM),selective drug sensitivity score,[1],1.92
same,selective drug sensitivity score,[2],7.12
same,selective drug sensitivity score,[3],1.02
same,selective drug sensitivity score,[4],-0.38
same,selective drug sensitivity score,[5],-0.48
same,selective drug sensitivity score,[6],-2.68
same,selective drug sensitivity score,[7],0.42
same,selective drug sensitivity score,[8],-0.38
same,selective drug sensitivity score,[9],0.72
same,selective drug sensitivity score,[10],-0.18
same,selective drug sensitivity score,[11],-0.78
same,selective drug sensitivity score,[12],-0.88
same,selective drug sensitivity score,[13],2.22
same,selective drug sensitivity score,[14],6.92
same,selective drug sensitivity score,[15],-0.98
same,selective drug sensitivity score,[16],0.62
same,selective drug sensitivity score,[17],5.62
same,selective drug sensitivity score,[18],4.12
same,selective drug sensitivity score,[19],-2.38
same,selective drug sensitivity score,[20],-2.18
C=C1C[C@@H]2CC[C@@]34C[C@H]5O[C@H]6[C@@H](O3)[C@H]3O[C@H](CC[C@@H]3O[C@H]6[C@H]5O4)CC(=O)C[C@@H]3[C@@H](OC)[C@@H](C[C@H](O)CN)O[C@H]3C[C@H]3O[C@@H](CC[C@@H]1O2)C[C@@H](C)C3=C [Eribulin] (top concentration 1000 nM),selective drug sensitivity score,[1],24
same,selective drug sensitivity score,[2],25.4
same,selective drug sensitivity score,[3],22.1
same,selective drug sensitivity score,[4],4.4
same,selective drug sensitivity score,[5],23.3
same,selective drug sensitivity score,[6],15.5
same,selective drug sensitivity score,[7],3.8
same,selective drug sensitivity score,[8],23.6
same,selective drug sensitivity score,[9],28.6
same,selective drug sensitivity score,[10],25.7
same,selective drug sensitivity score,[11],17.3
same,selective drug sensitivity score,[12],25.2
same,selective drug sensitivity score,[13],16
same,selective drug sensitivity score,[14],13.2
same,selective drug sensitivity score,[15],16.3
same,selective drug sensitivity score,[16],26.9
same,selective drug sensitivity score,[17],19.5
same,selective drug sensitivity score,[18],14.8
same,selective drug sensitivity score,[19],17.1
same,selective drug sensitivity score,[20],12.5
C/C(=C\c1csc(C)n1)[C@@H]1C[C@@H]2O[C@]2(C)CCC[C@H](C)[C@H](O)[C@@H](C)C(=O)C(C)(C)[C@@H](O)CC(=O)N1 [Ixabepilone] (top concentration 1000 nM),selective drug sensitivity score,[1],2.58
same,selective drug sensitivity score,[2],6.78
same,selective drug sensitivity score,[3],2.78
same,selective drug sensitivity score,[4],2.48
same,selective drug sensitivity score,[5],3.98
same,selective drug sensitivity score,[6],1.48
same,selective drug sensitivity score,[7],1.48
same,selective drug sensitivity score,[8],3.28
same,selective drug sensitivity score,[9],4.68
same,selective drug sensitivity score,[10],5.08
same,selective drug sensitivity score,[11],1.58
same,selective drug sensitivity score,[12],4.58
same,selective drug sensitivity score,[13],4.48
same,selective drug sensitivity score,[14],7.08
same,selective drug sensitivity score,[15],2.28
same,selective drug sensitivity score,[16],3.28
same,selective drug sensitivity score,[17],4.68
same,selective drug sensitivity score,[18],3.68
same,selective drug sensitivity score,[19],2.88
same,selective drug sensitivity score,[20],0.28
Cn1nnc2c(C(N)=O)ncn2c1=O [Temozolomide] (top concentration 100000 nM),selective drug sensitivity score,[1],6.16
same,selective drug sensitivity score,[2],6.66
same,selective drug sensitivity score,[3],1.46
same,selective drug sensitivity score,[4],-0.04
same,selective drug sensitivity score,[5],1.86
same,selective drug sensitivity score,[6],-0.04
same,selective drug sensitivity score,[7],-0.04
same,selective drug sensitivity score,[8],-0.04
same,selective drug sensitivity score,[9],5.16
same,selective drug sensitivity score,[10],-0.04
same,selective drug sensitivity score,[11],-0.04
same,selective drug sensitivity score,[12],3.36
same,selective drug sensitivity score,[13],2.26
same,selective drug sensitivity score,[14],-0.04
same,selective drug sensitivity score,[15],-0.04
same,selective drug sensitivity score,[16],2.36
same,selective drug sensitivity score,[17],3.76
same,selective drug sensitivity score,[18],-0.04
same,selective drug sensitivity score,[19],-0.04
same,selective drug sensitivity score,[20],-0.04
O=C1c2c(O)ccc(O)c2C(=O)c2c(NCCNCCO)ccc(NCCNCCO)c21 [Mitoxantrone] (top concentration 1000 nM),selective drug sensitivity score,[1],11.8
same,selective drug sensitivity score,[2],16.2
same,selective drug sensitivity score,[3],6.34
same,selective drug sensitivity score,[4],7.94
same,selective drug sensitivity score,[5],8.34
same,selective drug sensitivity score,[6],12.3
same,selective drug sensitivity score,[7],-3.86
same,selective drug sensitivity score,[8],-6.26
same,selective drug sensitivity score,[9],17
same,selective drug sensitivity score,[10],15.7
same,selective drug sensitivity score,[11],15.8
same,selective drug sensitivity score,[12],11.6
same,selective drug sensitivity score,[13],2.44
same,selective drug sensitivity score,[14],-3.06
same,selective drug sensitivity score,[15],-0.06
same,selective drug sensitivity score,[16],-3.86
same,selective drug sensitivity score,[17],15.6
same,selective drug sensitivity score,[18],16.3
same,selective drug sensitivity score,[19],-5.06
same,selective drug sensitivity score,[20],4.54
